Measurements as given in patent US7319093B2, “Antidiabetic 2-substituted-5′-O-(1-Boranotriphosphate) adenosine derivatives” (Bar-Ilan University, priority 2001, dated 2008).
Values joined by “and” are separate entries in the source; they are usually repeats but may differ in a detail not shown here. Equal entries are not always repeated. Where two headings read alike, the source gives them in different places.

Key:
[1] = test system: isolated and perfused rat pancreas; settings: cited from earlier work
dog = settings: cited from earlier work
fed rats = settings: cited from earlier work
[2] = test system: rat isolated and perfused pancreas; test: Insulin secretion from isolated perfused rat pancreas (8.3 mmol/L glucose)
Protocol: (§1) The effects of the compounds on insulin secretion and vascular resistance in the rat isolated and perfused pancreas were evaluated in the presence of a slightly stimulating glucose concentration (8.3 mmol/L).
(§2) Experiments were performed in vitro in isolated perfused pancreas from male Wistar albino rats fed ad libitum and weighing 300-350 g. The pancreas was completely isolated according to a technique previously described (Loubatières et al., Diabetologia, 1969, 5, 1-10) and perfused through its own arterial system with a Krebs-Ringer bicarbonate buffer containing 8.3 mmol/L glucose and 2 g/L bovine serum albumin. A mixture of O2 (95%) and CO2 (5%) was bubbled through this medium at atmospheric pressure. The pH of the solution was 7.35. The preparation was maintained at 37.5° C. Each organ was perfused at a constant pressure (40-50 cm water) selected so as to produce a flow rate of 2.5 ml/min at the start of the experiment; in these conditions, any change in the flow rate reflects a change in vascular resistance (Hillaire-Buys et al., Eur. J. Pharmacol., 1991, 199, 309-314). A 30 min adaptation period was allowed before the first sample was taken for insulin assay. A sample was taken 15 min later, at time 45 min. Then, an infusion of ATP analogues was performed during 30 min. The pancreatic flow rate was recorded and insulin was measured in the effluent fractions.
Insulin was assayed by the radioimmunological method of Herbert et al. (J. Clin. Endocrinol. Metab., 1965, 25, 1375-1384) using a purified rat insulin as standard (Linco Research, St. Charles, Mo., USA) and anti-insulin serum (ICN Biochemicals, Miles, Puteaux, France). The assay sensitivity was 0.1 ng/ml. Insulin output from perfused pancreas is expressed as ng/min and was determined by multiplying the hormone concentration in the effluent fraction by the flow rate.
(§3) Results are expressed as means±standard error of the mean (SEM). For the kinetics of insulin secretion and vascular flow rate, the results are expressed as changes in relation to the value at time 45 min taken as 100%. For the determination of the concentration-response relationship, the mean insulin output rate was calculated as follows: the area under the curve for the drug infusion period divided by the number of minutes (AUC/30).

[3] = test system: rat isolated and perfused pancreas; test: Pancreatic flow rate (vascular resistance) in isolated perfused rat pancreas; settings: for change in pancreatic flow rate: baseline 2.5 mL/min at time 45 min = 100%
Protocol: as §1, §2, §3

rat isolated pancreas = test: Glucose-dependence of the insulin response in the isolated rat pancreas; settings: 20 nmol/L during 20 minutes, mean±sem
Protocol: The rat isolated pancreas is perfused in vitro with a physiological medium containing different concentrations of glucose. VK 38A is added during 20 minutes at 20 nmol/L. Insulin response is determined by the area under the concentration-time curve during VK 38A administration and is expressed as mean±sem.

[4] = test system: Normal (non diabetic) Wistar rats; test: Effect on glycemia in vivo, glucose tolerance test; design: species or system rat; settings: in percent of baseline values, single oral dose 0.2 mg/kg, glucose 2 g/kg i.p., 0-60 min, individual animals 1-4
Protocol: Normal (non diabetic) Wistar rats were treated with a single oral dose of VK 38A (0.2 mg/kg) or placebo (vehicle) administered just before a glucose tolerance test, in a cross-over experimental design with a 7-day wash-out period. Glucose (2 g/kg) was administered by intraperitoneal injection. Blood samples were taken before and 10, 20, 30, 60 minutes after glucose load to measure glycemia. The area under the curve of plasma glucose concentrations (in percent of baseline values) was calculated. Results in four animals are given in Table 2 (baseline glucose concentrations were 1.26±0.02 and 1.26±0.04 g/L in control and treated animals, respectively).

[5] = injected directly to the pancreatico-duodenal artery
[6] = conscious dogs, oral administration

SMILES: CCCCCCSc1nc(N)c2ncn([C@H]3O[C@@H](COP(O)(=S)OP(=O)(O)OP(=O)(O)O)[C@H](O)[C@@H]3O)c2n1 (stereo partly drawn) [2-hexylthio-ATP-α-S]
- enhancement of potency relative to ATP ([1]; insulin secretion): 100 fold
- increase in glucose-induced insulin secretion ([1]; nM concentration range): up to 500%

SMILES: CSc1nc(N)c2ncn([C@@H]3O[C@H](COP(=O)(O)OP(=O)(O)OP(=O)(O)O)[C@@H](O)[C@H]3O)c2n1 [2-methylthio-ATP]
- glycemia (dog; [5]): slightly decreased glycemia
- insulin release (dog; [5]): stimulated insulin release

SMILES: Nc1ncnc2c1ncn2[C@@H]1O[C@H](COP(=O)(O)OP(O)(O)=S)[C@@H](O)[C@H]1O [ADP-β-S, Adenosine 5′-O-(2-thio)diphosphate]
- glycemia (dog; [6]): reducing glycemia
- insulinemia (dog; [6]): transiently increasing insulinemia
- Insulin response (fed rats): sustained insulin response
- glycemia (fed rats): reduction of glycemia

SMILES: BP(=O)(OC[C@H]1O[C@@H](n2cnc3c(N)nc(SC)nc32)[C@H](O)[C@@H]1O)OP(=O)(O)OP(=O)(O)O (stereo partly shown) [VK 38A, 2-methylthioadenosine-5′-O-(1-boranotriphosphate)]
- maximal effect on insulin secretion (AUC for 30 min in % per min) [2]: approximately 900%
- transient monophasic insulin response ([2]; 1.5 nmol/L, value at time 45 min taken as 100%): 230%
- concentration range of immediate and concentration-dependent insulin response ([2]; 30 min infusion): 0.0015 to 5.0 µmol/L
- change in pancreatic flow rate ([3]; 0.5 μmol/L): −6±3%
- change in pancreatic flow rate ([3]; 1.5 μmol/L): −10±3%
- change in pancreatic flow rate ([3]; 5.0 μmol/L): −8±6%
- vascular effects (pancreatic flow rate) ([3]; till 150 nmol/L): no significant effect
- Insulin response (rat isolated pancreas; glucose 2.8 mmol/L): 0.97 ± 0.03 ng/min
- Insulin response (rat isolated pancreas; glucose 5.0 mmol/L): 2.68 ± 0.52 ng/min
- Insulin response (rat isolated pancreas; glucose 8.3 mmol/L): 33.12 ± 1.75 ng/min
- AUC (VK38A-treated): area under the curve of plasma glucose concentrations [4]: 158 and 201 and 134 and 176

SMILES: BP(=O)(OC[C@H]1O[C@@H](n2cnc3c(N)nc(SC)nc32)[C@H](O)[C@@H]1O)OP(=O)(O)OP(=O)(O)O (stereo partly shown) [VK 38B, 2-methylthioadenosine-5′-O-(1-boranotriphosphate)]
- insulin response compared with VK 38A [2]: less potent than that induced by isomer A
- transient reduction in pancreatic flow rate (increase in vascular resistance) ([3]; from the concentration of 15 nmol/L): −27±5%

SMILES: BP(=O)(OC[C@H]1O[C@@H](n2cnc3c(N)ncnc32)[C@H](O)[C@@H]1O)OP(=O)(O)OP(=O)(O)O (stereo partly shown) [VK 39A, adenosine-5′-O-(1-boranotriphosphate)]
- insulin response compared with VK 38A [2]: clearly less potent than that of VK 38 A
- change in pancreatic flow rate ([3]; 0.5 μmol/L): +7±3%
- change in pancreatic flow rate ([3]; 5.0 μmol/L): +10±3%

SMILES: BP(=O)(OC[C@H]1O[C@@H](n2cnc3c(N)nc(Cl)nc32)[C@H](O)[C@@H]1O)OP(=O)(O)OP(=O)(O)O (stereo partly shown) [VK 44A, 2-chloroadenosine-5′-O-(1-boranotriphosphate)]
- insulin response compared with VK 38A [2]: comparable to that of VK 38A
- change in pancreatic flow rate ([3]; 0.015 μmol/L): +8±3%
- change in pancreatic flow rate ([3]; 0.15 μmol/L): +16±5%
- change in pancreatic flow rate ([3]; 1.5 μmol/L): +12±5%
